Laboratory results reported in patent US9120779B2, “Inhibitors of HCV NS5A” (PRESIDIO PHARMACEUTICALS, INC., priority 2008, dated 2015).
Read-outs that look alike come from different tables or passages of the source.

Tested on: HCV genotype 1b replicon in Huh 7 cells
Assay: HCV replicon assay (luciferase readout, 1b_Huh-Luc/Neo-ET cell line)
Type: cell-based
Conditions: Hepatitis C virus, Huh-7, 72 h
Procedure, shortened: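 Inhibition expressed as percent of untreated control luciferase signal and fitted to a Hill-slope equation for EC50, with repeat determinations. Compounds were added in triplicate to Huh 7 cells stably expressing the genotype 1b luciferase replicon, with 72 h exposure.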

COC(=O)N[C@H](C(=O)N1CCC[C@H]1c1ncc(-c2ccc(C34CCC(c5cnc([C@@H]6CCCN6C(=O)[C@H](NC(=O)OC6CCOCC6)c6ccccc6)[nH]5)(CC3)CC4)cc2)[nH]1)C(C)C [compound 2108]
EC50 (read-out: Inhibition of HCV genotype 1b, Table 5, 72 h incubation): < 1 nM

COC(=O)N[C@@H](C(=O)N1CCC[C@H]1c1cnc(N2CCN(c3ccc(-c4cnc([C@@H]5CCCN5C(=O)[C@H](NC(=O)OC)c5ccccc5)[nH]4)cc3)C(=O)C2)[nH]1)c1ccccc1 [compound 2113]
EC50 (read-out: Inhibition of HCV genotype 1b, Table 7, 72 h incubation): < 1 nM

COC(=O)N[C@H](C(=O)N1CCC[C@H]1c1ncc(C23CCC(c4ccc5c(c4)nc([C@@H]4CCCN4C(=O)[C@@H](NC(=O)OC)C(C)C)n5C)(CC2)CC3)[nH]1)C(C)C [compound 2116]
EC50 (read-out: Inhibition of HCV genotype 1b, Table 8, 72 h incubation): 10 to 999 nM
